# Experiments:
# [1] = system: Sprague-Dawley rat; assay: Diabetic animal model induced by STZ administration (blood glucose, urine and renal failure markers); assay type: in vivo
# Description: To verify a diabetic animal model induced by STZ administration according to Example 1-1 of the present invention, an experiment was carried out by designing the experimental model as described in FIG. 1A.
# However, in an experimental group in which diabetic animals are treated with an antidiabetic drug, it was confirmed that a blood glucose level was decreased gradually on Day 7, Day 14 and Day 21, and decreased to almost the normal level on the last day, Day 28.
# Then, it was confirmed whether renal failure occurs in a diabetic animal model induced by STZ administration. […] It can be seen that, in the anti-diabetic drug-administered group, the BUN and creatinine levels are decreased to a normal range.
# [2] = system: rat; assay: Hepatotoxicity model (carbon tetrachloride), liver findings and urinary SBP1; assay type: in vivo
# Description: (§1) The extracted proteins were dissolved, and transferred to a nitrocellulose membrane. Here, methanol was added to a transfer buffer, and the reaction was performed at 80 V for 1 hour. After the proteins were transferred, the membrane was stained with Ponceau S (within 10 seconds to 1 minute, slightly stained to see a band), and sufficiently washed with DW or PBS for blocking. Here, a blocking buffer was used by dissolving 3 to 5% bovine serum albumin (BSA) in a solution in which TWEEN™ 20 was contained in Tris-buffered saline (TBS). A primary antibody was reacted at 4° C. overnight, rinsed with a wash buffer (surfactant-containing TBS or PBS) to remove unbinding primary antibodies, and then secondary antibodies were reacted. After the secondary antibodies were reacted, unbinding secondary antibodies were rinsed with a washing buffer, and a band was identified using luminol.
# To confirm whether urinary SBP1 is released in a hepatotoxicity model, a hepatotoxic material such as carbon tetrachloride (CCl4) was administered to a rat to induce hepatotoxicity, and then SBP1 level in urine was measured.
# [3] = system: SD rats; assay: Drug (cisplatin)-induced renal failure animal model; assay type: in vivo, rat; conditions: 10 mg/kg I.P.
# Description: On Day 1, Day 3 and Day 5 after the injection, protein contents in urine obtained for 24 hours were measured in rats of the cisplatin-administered experimental group and the untreated control.
# as §1
# A supernatant was obtained by centrifuging each urine sample at 3000 g for 15 minutes, and stored in a freezer at −80° C. Following the urine collection, experimental animals were anesthetized with carbon dioxide to collect blood from the abdominal aorta, and after natural death due to bleeding, the kidneys and liver were extracted. A supernatant was obtained by centrifuging each blood sample at 1500 g for 15 minutes, and stored in a freezer at −80° C. The obtained urine and blood samples were subjected to detection of conventional markers using a test kit corresponding to each parameter.
# [4] = STZ 50 mg/kg single dose I.P., rat
# [5] = after administration of hepatotoxic material
# [6] = one day after administration, then decreased
smiles,measurement,setting,value
"CN(N=O)C(=O)N[C@@H](C=O)[C@@H](O)[C@H](O)[C@H](O)CO [STZ, streptozocin]",blood glucose level,[1]; [4],≥ 600 mg/dL
same,"blood glucose level, increase compared to the control",[1]; [4],≥ 6 fold
same,"BUN, increase compared to the control","[1]; STZ-administered group, rat",≥ 2 fold
same,"creatinine, increase compared to the control","[1]; STZ-administered group, rat",≥ 2 fold
same,"microalbumin in urine, increase compared to the control","[1]; STZ-administered group, rat",≥ 10 fold
same,"urine volume, increase compared to the control",[1]; diabetic animal induced by STZ administration,≥ 3 fold
ClC(Cl)(Cl)Cl [carbon tetrachloride],BUN,[2]; [5],no changes
same,SBP1 in urine (western blotting),[2]; [5],not detected
same,creatinine,[2]; [5],no changes
same,ALT level compared with the control,[2]; [6],increased
same,AST level compared with the control,[2]; [6],increased
same,"hepatotoxicity, liver histopathology (H&E staining)","[2]; rat liver, from one day after administration",severe liver failure was observed
N.N.[Cl][Pt][Cl] [cisplatin],BUN compared with the control,[3]; Day 1,no significant differences
same,kidney tissue damage (histology),[3]; Day 1,mildly damaged
same,serum creatinine compared with the control,[3]; Day 1,no significant differences
same,urinary SBP1 level (western blotting),[3]; Day 1,increased
same,BUN compared with the control,[3]; Day 3,significantly increased
same,serum creatinine compared with the control,[3]; Day 3,significantly increased
same,urinary SBP1 level compared with the control,[3]; Day 3,highly increased
same,"BUN, increase compared with the control",[3]; Day 5,3 to 5 fold
same,kidney tissue damage (histology),[3]; Day 5,most tubules were severely damaged
same,"serum creatinine, increase compared with the control",[3]; Day 5,3 to 5 fold
same,urinary SBP1 level (western blotting),[3]; Day 5,detected at a very high level

# Source: patent publication US11092610B2, “Biomarker SBP1 for early diagnosis of kidney diseases, and use thereof” (CELLGENTEK CO., LTD., priority 2016, dated 2021)
